Experiment [1] deals with T1, rat brain FAAH (Rattus norvegicus, UniProt P97612).
T1 construct: from tissue; host or cells: rat brain (minus cerebellum), washed membrane pellet
T1 sequence (P97612 1-579): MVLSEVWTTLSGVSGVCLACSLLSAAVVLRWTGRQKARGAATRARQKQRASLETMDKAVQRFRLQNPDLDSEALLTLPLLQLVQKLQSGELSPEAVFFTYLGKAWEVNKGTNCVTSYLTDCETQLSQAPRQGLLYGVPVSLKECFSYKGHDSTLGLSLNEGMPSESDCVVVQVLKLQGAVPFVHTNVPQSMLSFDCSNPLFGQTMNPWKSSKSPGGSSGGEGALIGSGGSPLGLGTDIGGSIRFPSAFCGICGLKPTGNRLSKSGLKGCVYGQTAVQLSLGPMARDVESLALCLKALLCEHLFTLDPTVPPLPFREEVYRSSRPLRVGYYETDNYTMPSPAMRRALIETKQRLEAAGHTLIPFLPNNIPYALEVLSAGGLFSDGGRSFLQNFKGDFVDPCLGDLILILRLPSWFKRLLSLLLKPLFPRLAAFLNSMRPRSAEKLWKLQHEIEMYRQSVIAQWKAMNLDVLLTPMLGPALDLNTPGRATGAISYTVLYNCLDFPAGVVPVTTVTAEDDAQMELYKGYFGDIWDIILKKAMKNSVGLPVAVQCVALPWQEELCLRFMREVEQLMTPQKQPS
The experiment in a line: Inhibition of [3H]AEA hydrolysis in rat brain homogenates. Format: biochemical. On the procedure: (§1) Brains (minus cerebella) from adult Wistar or Sprague-Dawley rats (killed by decapitation) and from male B6CBAF1/J mice (killed by cervical dislocation), stored at -80°C, were thawed, weighed and homogenized in cold buffer (20 mM HEPES, 1 mM MgCl2 pH 7.0). Homogenates were centrifuged (35,000 g at 4°C for 20 min) before the pellet was resuspended in cold homogenization buffer. Centrifugation and resuspension was repeated twice. The suspension was incubated at 37°C for 15 min to degrade any endogenous substrate able to interfere with the FAAH assay. After centrifugation (35,000 g at 4°C for 20 min), the pellet was resuspended in cold buffer (50 mM Tris-HCl, 1mM EDTA, 3 mM MgCl2, pH 7.4). The protein concentration was determined according to [27] after which the samples were frozen in aliquots at -80°C.
(§2) The assays were performed according to [28] with minor modifications. Briefly, homogenates or cell lysates in assay buffer (10 mM Tris-HCl, 1mM EDTA, pH 7.4) were mixed with substance dissolved in ethanol on ice. Hydrolysis reactions were initiated by addition of substrate ([^3H]AEA in 10 mM Tris-HCl, 1mM EDTA, pH 7.4 containing 10 mg ml^-1 fatty acid-free bovine serum, assay concentration 0.5 μM unless otherwise stated) and incubation at 37°C. For the brain homogenates, hydrolysis at 37°C was allowed to proceed for 10 min (assay volume was 200 μL, with 1 and 0.3 μg/assay protein concentrations of the rat and mouse homogenates, respectively). For the kinetic experiments, the AEA: fatty acid-free bovine serum albumin ratio was kept constant at 1: ~4.5 (μM). Following incubation, reactions were stopped by addition of 400 μL activated charcoal (80 μL activated charcoal + 320 μL 0.5 M HCl) and placement of samples on ice before centrifugation at 2500 rpm for 10 min. Aliquots (200 μL) of the supernatant were analyzed for tritium content by liquid scintillation spectroscopy with quench correction. Sample sizes were chosen on the basis of previous data investigating FAAH inhibitory properties of compounds.
(§3) pI50 and IC50 values were calculated using log(inhibitor) vs. response with variable slope (four parameters) algorithm in the GraphPad Prism computer program (GraphPad Software Inc., San Diego, CA. USA). […] The best fit was chosen by Akaike’s informative criteria. Ki and α values were obtained using the enzyme kinetics mixed model inhibition curve fitting algorithm available in the GraphPad Prism programme. This models the observed velocity v^app at a given substrate concentration where v^app = Vmax ^app/(1 + Km ^app/[S]), Vmax ^app = Vmax/(1+[I]/(αKi)) and Km ^app = Km(1+[I]/Ki)/(1+[I]/(αKi)) (http://www.graphpad.com/guides/prism/6/curve-fitting/index.htm?reg_mixered_model.htm, URL checked 16 October 2015). The model assuming competitive interactions (where α→∞) was also used, and the best fit was chosen by Akaike’s informative criteria. Robust linear regressions for the Dixon plots, which are less sensitive to outliers than the standard least-squares methodology were undertaken using the same computer programme.

Experiment [2] concerns the target T2, rat wild-type FAAH (FAAH^wt) (Rattus norvegicus, UniProt P97612).
T2 construct: expressed in transfected cells; host or cells: HeLa cells, pcDNA4 plasmid, lysate
T2 sequence (P97612 1-579): T1 sequence (P97612 1-579)
Description: Inhibition of [3H]AEA hydrolysis in lysates of HeLa cells expressing wild-type FAAH. Format: biochemical. To be noted: for nH: 0.5 μM [3H]AEA; for IC50: preliminary experiments, another batch of wild-type FAAH, 1.5–2 μg/assay, 20 min at 37°C, read-out: potencies.

Experiment [3] concerns the target T3, FAAH^T488A (Rattus norvegicus, UniProt P97612, T488A).
T3 construct: expressed in transfected cells; host or cells: HeLa cells, pcDNA4 plasmid, lysate
T3 sequence (P97612 1-579 T488A): T1 sequence (P97612 1-579) with T488A
Description: Inhibition of [3H]AEA hydrolysis in lysates of HeLa cells expressing FAAH^T488A. The settings on record: FAAH^T488A lysate 0.4 μg/assay, 18 h, 0.5 μM [3H]AEA. The experiment is classed as biochemical.

In experiment [4] the target is T4, mouse brain FAAH (Mus musculus, UniProt O08914).
T4 construct: from tissue; host or cells: mouse brain (minus cerebellum), washed membrane pellet
T4 sequence (O08914 1-579): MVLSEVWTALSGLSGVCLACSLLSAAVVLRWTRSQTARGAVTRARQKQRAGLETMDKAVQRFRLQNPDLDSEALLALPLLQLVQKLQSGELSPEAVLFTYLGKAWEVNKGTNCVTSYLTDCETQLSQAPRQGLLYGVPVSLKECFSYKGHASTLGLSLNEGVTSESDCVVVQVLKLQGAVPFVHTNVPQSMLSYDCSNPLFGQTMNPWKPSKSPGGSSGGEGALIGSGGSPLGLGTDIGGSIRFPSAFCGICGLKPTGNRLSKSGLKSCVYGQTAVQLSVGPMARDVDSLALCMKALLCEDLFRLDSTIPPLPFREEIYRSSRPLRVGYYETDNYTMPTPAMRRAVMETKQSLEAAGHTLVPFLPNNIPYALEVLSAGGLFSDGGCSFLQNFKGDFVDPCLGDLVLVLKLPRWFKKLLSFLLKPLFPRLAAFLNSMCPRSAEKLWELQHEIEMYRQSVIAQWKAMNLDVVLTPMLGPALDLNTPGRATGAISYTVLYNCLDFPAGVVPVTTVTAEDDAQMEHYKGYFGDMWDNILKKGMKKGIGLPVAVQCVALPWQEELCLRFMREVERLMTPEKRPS
The experiment in a line: Inhibition of [3H]AEA hydrolysis in mouse brain homogenates. Format: biochemical. The settings on record: 0.5 μM [3H]AEA. As to the method: as §1, §2, §3

Experiment [5] has as its target T4, mouse brain FAAH. On the set-up: method as in PMID 26406890. To be noted: mouse brain homogenates; cited from earlier work.
The mark [6] stands for this setting: rat brain homogenates, 0.5 μM [3H]AEA.
[7] abbreviates: linear mixed inhibition model fit, 0.5–4 μM [3H]AEA.
Where [8] appears, read: linear mixed inhibition model fit, 0.5–4 μM [3H]AEA, read-out: Ki.
The mark [9] stands for this setting: median of Dixon plot intersections, 0.5–4 μM [3H]AEA, read-out: Ki (Dixon plot).
Setting [10] is: rat brain homogenates, 0.5 μM [3H]AEA, read-out: IC50.
Setting [11] is: rat brain homogenates, 0.5 μM [3H]AEA, read-out: pI50 (converted).

Residue numbers refer to the chain shown, from its start. Where two headings read alike, the source gives them in different places.

Take `CC(C(=O)O)c1ccc2c(c1)[nH]c1ccc(Cl)cc12` (stereo not drawn) [Carprofen, reference compound]: the “nH (Hill slope)” value in experiment [1] (setting [6]) stood at 1.66±0.13. The nH worked out at 4.28±0.41 in experiment [2] (FAAH^wt + empty vector (0.36 μg/assay) lysates, 18 h); 3.00±0.31 in experiment [2] (FAAH^wt lysate 0.04 μg/assay, 18 h); 2.43±0.37 in experiment [3]. The “maximum inhibition (best fit)” value in experiment [2] (wild-type FAAH lysates, 18 h) is on record as 82–91%.

Take `Cc1cccnc1NC(=O)[C@@H](C)c1ccc(CC(C)C)cc1` [(S)-Ibu-AM5, 2-(4-Isobutylphenyl)-N-(3-methylpyridin-2-yl)propanamide]: the “interaction with carprofen in multiple inhibition experiments” value in experiment [1] (Dixon plots, 0.5 μM [3H]AEA, together with carprofen) is “mutually exclusive manner”. This compound displayed a α in experiment [1] (setting [7]) of 3.2±1.5. Moreover, the Ki (usually a dissociation constant, usually derived from enzyme kinetics or from competition with a known ligand) in experiment [1] (setting [8]) was determined as 800 ± 210 nM; in experiment [1] (setting [9]), 890 nM. Also, the “nH (Hill slope)” value is 0.81±0.08 in experiment [1] (setting [6]) and 1.33±0.38 in experiment [4]. The IC50 in experiment [1] (setting [10]) is 590 nM; in experiment [1] (setting [11]), 589 nM; in experiment [4] (read-out: IC50), 7000 nM; in experiment [4] (read-out: pI50 (converted)), 6920 nM; in experiment [2], 530 nM.

As to `Cc1cccnc1NC(=O)Cc1ccc(CC(C)C)cc1` [Ibufenac-AM1, 2-(4-Isobutylphenyl)-N-(3-methylpyridin-2-yl)acetamide], the IC50 in experiment [1] (setting [10]) is 68000 nM; in experiment [1] (setting [11]), 67600 nM.

Regarding `Cc1cccnc1NC(=O)[C@@H](C)c1ccc(-c2ccccc2)c(F)c1` [(S)-Flu-AM1], in experiment [1] (0.5–4 μM [3H]AEA, compared with pure competitive model), the “mode of inhibition (best-fit model)” value was “linear mixed inhibition”. This compound also gave a α in experiment [1] (setting [7]) of 5.6±3.6. In addition, the Ki in experiment [1] (setting [8]) was determined as 790 ± 280 nM; in experiment [1] (setting [9]), 860 nM. Besides, the figures for the “nH (Hill slope)” value in experiment [1] (setting [6]) and in experiment [4] were 0.94±0.04 and 1.31±0.16, respectively. In addition, the IC50 in experiment [1] (setting [10]) is 990 nM; in experiment [1] (setting [11]), 1000 nM; in experiment [2], 2400 nM; in experiment [5] it was 11000 nM. In addition, the pI50 in experiment [5] is recorded as 4.96±0.04.

As to `Cc1cccnc1NC(=O)C(C)c1ccc(CC(C)C)cc1` (racemic) [racemic Ibu-AM5, 2-(4-Isobutylphenyl)-N-(3-methylpyridin-2-yl)propanamide], the IC50 in experiment [1] (setting [10]) and in experiment [1] (setting [11]) was 1200 nM in each case.

In turn, `Cc1cccnc1NC(=O)[C@H](C)c1ccc(CC(C)C)cc1` [(R)-Ibu-AM5, 2-(4-Isobutylphenyl)-N-(3-methylpyridin-2-yl)propanamide] gave a α in experiment [1] (setting [7]) of 3.1±1.1. Besides, the Ki in experiment [1] (setting [8]) came to 10000 ± 2500 nM; in experiment [1] (setting [9]) it was 9800 nM. Also, in experiment [1] (rat FAAH), the “fold less potent an inhibitor of FAAH than the (S)-enantiomer” value came out at 10 fold. For the same compound, the results for the “nH (Hill slope)” value in experiment [1] (setting [6]) and in experiment [4] were 1.05±0.10 and 1.50±0.36, respectively. In addition, the IC50 in experiment [1] (setting [10]) is 5700 nM; in experiment [1] (setting [11]), 5620 nM; in experiment [4] (read-out: IC50), 53000 nM; in experiment [2], 8800 nM. Also, in experiment [1] (rat brain homogenates, 0.5 μM [3H]AEA, read-out: maximum inhibition (best fit)), the inhibition (usually how much of the control response was suppressed) stood at 92%.

These data come from article PMC4643906, “Interaction of the N-(3-Methylpyridin-2-yl)amide Derivatives of Flurbiprofen and Ibuprofen with FAAH: Enantiomeric Selectivity and Binding Mode” (PLoS ONE, 2015).
